In patent publication US7507739B2, “6-[(substituted)phenyl]triazolopyrimidines as anticancer agents” (Wyeth, priority 2003, dated 2009):
Marks after values point to notes of the source that are not given here.

Columns and labels:
[1] = system: U87-MG Human Glioblastoma; test: Human tumor xenograft test, U87-MG; format: in vivo, athymic mice; settings: U87-MG
[2] = system: A549 Human Non-Small Cell Lung Carcinoma; test: Human tumor xenograft test, A549; format: in vivo, athymic mice; settings: for T/C on day 0 / T/C on day 7 / T/C on day 14 / T/C on day 21 / T/C on day 27 / T/C on day 35: days 0, 6, 13, 20
Description: (§1) The ability of compounds of this invention to inhibit tumor growth in animals is studied in the athymic mouse xenograft standard pharmacological test. Female nu/nu mice in an outbred albino background are obtained from Charles River Laboratories (Wilmington, Mass.). Animals are injected subcutaneously on the flank with the desired tumor cell suspension. Several days later, mice with tumors of approximately 150 mm^3 are selected from those injected (staged) and randomly distributed into groups of 5-10. The day of staging is called day 0. Compounds of the invention, usually formulated in saline (exceptions are noted in tables), are administered to animals by intravenous injection or oral gavage on various schedules starting on day 0 or 1, as noted in the tables. The control group in each experiment is dosed with vehicle on the same schedule. Tumor size is measured every 3-7 days with calipers in two orthogonal dimensions, and tumor volume is calculated from the formula volume=[(length×width^2)/2].
(§2) Tumor/Control (T/C) is obtained by dividing the mean tumor volume of the treated group by the mean tumor volume of the control group on each measurement day. A treatment dose is defined as active if it produced a statistically significant T/C of 0.50 or less. A p value≦0.05, determined by one-side Student's t-test, is required for statistical significance. A treatment dose is defined as toxic if more than 10% of the animals died from a compound-related toxicity.

[3] = system: HCT-15 Human Colon Carcinoma; test: Human tumor xenograft test, HCT-15; format: in vivo, athymic mice; settings: for T/C on day 0 / T/C on day 7 / T/C on day 13 / T/C on day 20: days 1, 8, 15
Description: as §1, §2

[4] = system: HeLa cells; test: Cell cycle analysis with HeLa cells; format: cell-based, human; settings: 18 hr

Structure (SMILES): CNCCCOc1cc(F)c(-c2c(Cl)nc3ncnn3c2N[C@@H](C)C(F)(F)F)c(F)c1.Cl [Example 2a, 5-Chloro-6-{2,6-difluoro-4-[3-(methylamino)propoxy]phenyl}-N-[(1S)-2,2,2-trifluoro-1-methylethyl][1,2,4]triazolo[1,5-a]pyrimidin-7-amine hydrogen chloride]
- tumor growth inhibition (activity call) ([1]; orally single dose on day 0 at 5 or 2.5 mg/kg): not at 5 or 2.5 mg/kg
- tumor growth inhibition (activity call) ([1]; orally single dose on day 0 at 30, 20, and 10 mg/kg): inhibited the growth
- T/C on day 0 ([2]; A549, 15 mg/kg IV): 1.01
- T/C on day 7 ([2]; A549, 15 mg/kg IV): 0.75*
- T/C on day 14 ([2]; A549, 15 mg/kg IV): 0.61**
- T/C on day 21 ([2]; A549, 15 mg/kg IV): 0.83
- T/C on day 27 ([2]; A549, 15 mg/kg IV): 0.75
- T/C on day 35 ([2]; A549, 15 mg/kg IV): 0.76
- tumor growth inhibition (activity call) ([2]; A549, 15 mg/kg intravenously on days 0, 6, 13, and 20): not at 15 mg/kg
- T/C on day 0 ([2]; A549, 20 mg/kg IV): 0.97
- T/C on day 7 ([2]; A549, 20 mg/kg IV): 0.79
- T/C on day 14 ([2]; A549, 20 mg/kg IV): 0.55**
- T/C on day 21 ([2]; A549, 20 mg/kg IV): 0.59*
- T/C on day 27 ([2]; A549, 20 mg/kg IV): 0.50*
- T/C on day 35 ([2]; A549, 20 mg/kg IV): 0.49*
- T/C on day 0 ([2]; A549, 25 mg/kg IV): 0.99
- T/C on day 7 ([2]; A549, 25 mg/kg IV): 0.72*
- T/C on day 14 ([2]; A549, 25 mg/kg IV): 0.51**
- T/C on day 21 ([2]; A549, 25 mg/kg IV): 0.57*
- T/C on day 27 ([2]; A549, 25 mg/kg IV): 0.48*
- T/C on day 35 ([2]; A549, 25 mg/kg IV): 0.44*
- tumor growth inhibition (activity call) ([2]; A549, 25 and 20 mg/kg intravenously on days 0, 6, 13, and 20): inhibited the growth
- T/C on day 0 ([3]; HCT-15, 10 mg/kg IV): 1.00
- T/C on day 7 ([3]; HCT-15, 10 mg/kg IV): 0.81
- T/C on day 13 ([3]; HCT-15, 10 mg/kg IV): 1.03
- T/C on day 20 ([3]; HCT-15, 10 mg/kg IV): 0.75
- T/C on day 0 ([3]; HCT-15, 20 mg/kg IV): 1.00
- T/C on day 7 ([3]; HCT-15, 20 mg/kg IV): 0.86
- T/C on day 13 ([3]; HCT-15, 20 mg/kg IV): 0.50*
- T/C on day 20 ([3]; HCT-15, 20 mg/kg IV): 0.43*
- tumor growth inhibition (activity call) ([3]; HCT-15, 20 mg/kg intravenously on days 1, 8, and 15): active
- T/C on day 0 ([3]; HCT-15, 25 mg/kg IV): 1.00
- T/C on day 7 ([3]; HCT-15, 25 mg/kg IV): 0.78
- T/C on day 13 ([3]; HCT-15, 25 mg/kg IV): 0.60
- T/C on day 20 ([3]; HCT-15, 25 mg/kg IV): 0.44
- Percent in Cell Cycle Phase >4N ([4]; 20 nM): 2%
- Percent in Cell Cycle Phase Apop ([4]; 20 nM): 28%
- Percent in Cell Cycle Phase G1 ([4]; 20 nM): 41%
- Percent in Cell Cycle Phase G2/M ([4]; 20 nM): 16%
- Percent in Cell Cycle Phase S ([4]; 20 nM): 14%
- Percent in Cell Cycle Phase >4N ([4]; 30 nM): 2%
- Percent in Cell Cycle Phase Apop ([4]; 30 nM): 62%
- Percent in Cell Cycle Phase G1 ([4]; 30 nM): 12%
- Percent in Cell Cycle Phase G2/M ([4]; 30 nM): 16%
- Percent in Cell Cycle Phase S ([4]; 30 nM): 10%
- Percent in Cell Cycle Phase >4N ([4]; 40 nM): 2%
- Percent in Cell Cycle Phase Apop ([4]; 40 nM): 44%
- Percent in Cell Cycle Phase G1 ([4]; 40 nM): 5%
- Percent in Cell Cycle Phase G2/M ([4]; 40 nM): 39%
- Percent in Cell Cycle Phase S ([4]; 40 nM): 9%
- Percent in Cell Cycle Phase >4N ([4]; 50 nM): 4%
- Percent in Cell Cycle Phase Apop ([4]; 50 nM): 25%
- Percent in Cell Cycle Phase G1 ([4]; 50 nM): 5%
- Percent in Cell Cycle Phase G2/M ([4]; 50 nM): 58%
- Percent in Cell Cycle Phase S ([4]; 50 nM): 9%
- Percent in Cell Cycle Phase >4N ([4]; 60 nM): 4%
- Percent in Cell Cycle Phase Apop ([4]; 60 nM): 24%
- Percent in Cell Cycle Phase G1 ([4]; 60 nM): 4%
- Percent in Cell Cycle Phase G2/M ([4]; 60 nM): 58%
- Percent in Cell Cycle Phase S ([4]; 60 nM): 9%
- Percent in Cell Cycle Phase >4N ([4]; 70 nM): 4%
- Percent in Cell Cycle Phase Apop ([4]; 70 nM): 22%
- Percent in Cell Cycle Phase G1 ([4]; 70 nM): 6%
- Percent in Cell Cycle Phase G2/M ([4]; 70 nM): 57%
- Percent in Cell Cycle Phase S ([4]; 70 nM): 11%
- Percent in Cell Cycle Phase >4N ([4]; 80 nM): 4%
- Percent in Cell Cycle Phase Apop ([4]; 80 nM): 26%
- Percent in Cell Cycle Phase G1 ([4]; 80 nM): 7%
- Percent in Cell Cycle Phase G2/M ([4]; 80 nM): 52%
- Percent in Cell Cycle Phase S ([4]; 80 nM): 11%
- Percent in Cell Cycle Phase >4N ([4]; 90 nM): 4%
- Percent in Cell Cycle Phase Apop ([4]; 90 nM): 30%
- Percent in Cell Cycle Phase G1 ([4]; 90 nM): 7%
- Percent in Cell Cycle Phase G2/M ([4]; 90 nM): 46%
- Percent in Cell Cycle Phase S ([4]; 90 nM): 13%
- Percent in Cell Cycle Phase >4N ([4]; 100 nM): 4%
- Percent in Cell Cycle Phase Apop ([4]; 100 nM): 34%
- Percent in Cell Cycle Phase G1 ([4]; 100 nM): 7%
- Percent in Cell Cycle Phase G2/M ([4]; 100 nM): 41%
- Percent in Cell Cycle Phase S ([4]; 100 nM): 15%
- Percent in Cell Cycle Phase >4N ([4]; 110 nM): 4%
- Percent in Cell Cycle Phase Apop ([4]; 110 nM): 37%
- Percent in Cell Cycle Phase G1 ([4]; 110 nM): 9%
- Percent in Cell Cycle Phase G2/M ([4]; 110 nM): 37%
- Percent in Cell Cycle Phase S ([4]; 110 nM): 14%
- Percent in Cell Cycle Phase >4N ([4]; 120 nM): 4%
- Percent in Cell Cycle Phase Apop ([4]; 120 nM): 39%
- Percent in Cell Cycle Phase G1 ([4]; 120 nM): 8%
- Percent in Cell Cycle Phase G2/M ([4]; 120 nM): 36%
- Percent in Cell Cycle Phase S ([4]; 120 nM): 15%
